Reference: patent publication US11465984B2, “Compound having ERK kinase inhibitory activity and use thereof” (SHANGHAI HAIHE PHARMACEUTICAL CO., LTD., priority 2017, dated 2022)
Read-outs that look alike come from different tables or passages of the source.

Tests used:
[1] = Chemical stability assay in solutions with various pH values (UPLC); assay type: physicochemical
Excerpt: 1. Detection Means and Conditions Used in the Chemical Stability Assay
• Detection method: Ultra-high performance liquid chromatography (UPLC) Chromatographic Conditions: • System: Ultra-high performance liquid chromatography system including pump, automatic sample injector, detector, and column oven • Column Waters Acquity UPLC BEH C18 (2.1*50 mm, 1.7 μm) • Detector: PDA detector • Detection wavelength: 225 nm • Mobile phase: A: 0.05% trifluoroacetic acid in water • B: acetonitrile • Gradient:
• Flow rate: 0.4 ml/min • Column temperature: 40° C. • Injecion volume: 2 μl 2. Study on the Chemical Stability of the Compounds of the Invention (1). Formulation of Solutions of Test Compound P9
Compound P9 was formulated as solutions in different buffer systems at a concentration of 0.2 mg/ml using PEG400 as cosolvent. These solutions were used for chemical stability study. The solutions with various pH values were formulated as follows: […]
Conditions for the chemical stability assay: the solutions of Compound P9 with various pH values were stored at 37° C. for 24 h. The content of Compound P9 was determined by HPLC at 0, 4, 8, 12, 14 and 24 h. […]

ERK2 kinase = ERK2 kinase (Homo sapiens (Human), UniProt P28482); assay: In vitro enzyme activity assay, ERK2 kinase (Z'-LYTE); assay type: biochemical
Chain of ERK2 kinase (P28482 whole entry): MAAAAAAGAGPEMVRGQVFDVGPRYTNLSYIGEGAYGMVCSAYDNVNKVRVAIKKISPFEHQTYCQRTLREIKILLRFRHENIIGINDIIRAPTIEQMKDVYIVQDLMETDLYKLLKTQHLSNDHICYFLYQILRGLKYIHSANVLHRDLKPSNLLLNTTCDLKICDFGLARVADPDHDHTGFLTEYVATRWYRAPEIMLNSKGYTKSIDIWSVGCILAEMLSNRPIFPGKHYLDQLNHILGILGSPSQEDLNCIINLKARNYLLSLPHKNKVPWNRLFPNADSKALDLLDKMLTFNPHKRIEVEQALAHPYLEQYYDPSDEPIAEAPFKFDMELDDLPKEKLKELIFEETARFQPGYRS
Protocol: Half inhibitory activity of the compounds of the invention against ERK2 kinase (IC50 value) was determined in this Example.
• Enzyme: extracellular signal-regulated kinase ERK2 kinase (PV3595, Invitrogen) • Kit: Z′-LYTE® Protein Kinase Assay Kit-Ser/Thr 3 Peptide (PV3176, Invitrogen) • Kit components: The substrate Z′-LYTE™ Ser/Thr 3 Peptide (PV3200) • The phosphorylation substrate Z′-LYTE™ Ser/Thr 3 Phospho-peptide (PV3215) • 5× kinase buffer: 250 mM HEPES (pH 7.5), 50 mM MgCl2, • 5 mM EGTA, 0.05% BRIJ-35 (PV3189, Invitrogen) • ATP (PV3227, Invitrogen) • Development Reagent A (PV3295, Invitrogen) • Development Buffer (P3127, Invitrogen) • Stop Reagent (P3094, Invitrogen) • Microplate reader: The multil-mode microplate reader PerkinElmer EnVision® • Microplate: black shallow 384-well microplate (6008269, PerkinElmer) (2). Assay Protocol:
The substrate Z′-LYTE™ Ser/Thr 3 Peptide, the phosphorylation substrate Z′-LYTE™ Ser/Thr 3 Phospho-peptide, 1× kinase buffer (5× kinase buffer was diluted with ultra pure water by five times), ATP, Development Reagent A, Development Buffer, Stop Reagent were balanced to room temperature for use. The screening concentrations for detecting the effect of the compounds of the invention on the ERK kinase activity were seven 3-fold serial dilutions starting from 1 μM (from 0.2 μM for the positive drug control) using 4% DMSO as co-solvent. 5 μL enzyme system (50 mM HEPES pH 7.5, 1 mM EGTA, 10 mM MgCl2, 0.01% Brij-35, 4 uM substrate, 0.8 ng/μL enzyme), 2.5 μL Compound, 2.5 μL 400 μM ATP were added into 384 well microplate, followed by incubation at room temperature for 60 min in the dark. After the reaction was completed, 5 μl the developing agent (Development Reagent A) diluted with the developing buffer (Development Buffer) was added to all reaction wells, followed by incubation at the room temperature for 60 min in the dark. 5 μL the terminating agent was added to each well to terminate the reaction. The fluorescence was determined using the multil-mode microplate reader PerkinElmer EnVision® (excitation wavelength 400 nm, emission wavelength 460 nm and 528 nm).
The inhibition rate of each well was calculated from 100% phosphorylation substrate well and 0% phosphorylation substrate well using the data analysis method below: phosphorylation %=1−{(emission rate×F100%−C100%)/[C0%−C100%+emission rate×(F100%−F0%)]}×100 inhibition %=100×(1−phosphorylation % of the test compound well/phosphorylation % of the 0% inhibition control) • wherein: • emission rate=fluorescence emission of the sample at 445 nm/fluorescence emission of the sample at 520 nm • F100%=the average fluorescence emission of the control well of 100% phosphorylation substrate at 520 nm • F0%=the average fluorescence emission of the control well of 0% phosphorylation substrate at 520 nm • C100%=the average fluorescence emission of the control well of 100% phosphorylation substrate at 445 nm • C0%=the average fluorescence emission of the control well of 0% phosphorylation substrate at 445 nm
Tests were carried out in duplicate. IC50 values were calculated from the inhibition of the kinase by the test compounds at a range of different concentrations.

SMILES: Cn1nccc1Nc1cc(-c2cc(F)c3c(c2)CCN3C(=O)Cc2cccnc2Cl)ccn1 [Example P9, 2-(2-chloropyridin-3-yl)-1-(7-fluoro-5-(2-((1-methyl-1H-pyrazol-5-yl)amino)pyridin-4-yl)indolin-1-yl)ethan-1-one]
- Percentage (%) of the peak area of the total impurity ([1]; solution pH 2.0, 37° C., 0 h): 0.84%
- Percentage (%) relative to the peak area of the compound at the original point ([1]; solution pH 2.0, 37° C., 0 h): 100.0%
- Percentage (%) of the peak area of the total impurity ([1]; solution pH 2.0, 37° C., 4 h): 0.85%
- Percentage (%) relative to the peak area of the compound at the original point ([1]; solution pH 2.0, 37° C., 4 h): 100.1%
- Percentage (%) of the peak area of the total impurity ([1]; solution pH 2.0, 37° C., 8 h): 0.85%
- Percentage (%) relative to the peak area of the compound at the original point ([1]; solution pH 2.0, 37° C., 8 h): 101.0%
- Percentage (%) of the peak area of the total impurity ([1]; solution pH 2.0, 37° C., 12 h): 0.85%
- Percentage (%) relative to the peak area of the compound at the original point ([1]; solution pH 2.0, 37° C., 12 h): 100.6%
- Percentage (%) of the peak area of the total impurity ([1]; solution pH 2.0, 37° C., 14 h): 0.84%
- Percentage (%) relative to the peak area of the compound at the original point ([1]; solution pH 2.0, 37° C., 14 h): 100.6%
- Percentage (%) of the peak area of the total impurity ([1]; solution pH 2.0, 37° C., 24 h): 0.85%
- Percentage (%) relative to the peak area of the compound at the original point ([1]; solution pH 2.0, 37° C., 24 h): 101.0%
- Percentage (%) of the peak area of the total impurity ([1]; solution pH 6.8, 37° C., 0 h): 0.75%
- Percentage (%) relative to the peak area of the compound at the original point ([1]; solution pH 6.8, 37° C., 0 h): 100.0%
- Percentage (%) of the peak area of the total impurity ([1]; solution pH 6.8, 37° C., 4 h): 0.69%
- Percentage (%) relative to the peak area of the compound at the original point ([1]; solution pH 6.8, 37° C., 4 h): 101.0%
- Percentage (%) of the peak area of the total impurity ([1]; solution pH 6.8, 37° C., 8 h): 0.71%
- Percentage (%) relative to the peak area of the compound at the original point ([1]; solution pH 6.8, 37° C., 8 h): 101.4%
- Percentage (%) of the peak area of the total impurity ([1]; solution pH 6.8, 37° C., 12 h): 0.71%
- Percentage (%) relative to the peak area of the compound at the original point ([1]; solution pH 6.8, 37° C., 12 h): 101.6%
- Percentage (%) of the peak area of the total impurity ([1]; solution pH 6.8, 37° C., 14 h): 0.68%
- Percentage (%) relative to the peak area of the compound at the original point ([1]; solution pH 6.8, 37° C., 14 h): 100.8%
- Percentage (%) of the peak area of the total impurity ([1]; solution pH 6.8, 37° C., 24 h): 0.68%
- Percentage (%) relative to the peak area of the compound at the original point ([1]; solution pH 6.8, 37° C., 24 h): 101.7%
- Percentage (%) of the peak area of the total impurity ([1]; solution pH 7.4, 37° C., 0 h): 0.72%
- Percentage (%) relative to the peak area of the compound at the original point ([1]; solution pH 7.4, 37° C., 0 h): 100.0%
- Percentage (%) of the peak area of the total impurity ([1]; solution pH 7.4, 37° C., 4 h): 0.67%
- Percentage (%) relative to the peak area of the compound at the original point ([1]; solution pH 7.4, 37° C., 4 h): 100.3%
- Percentage (%) of the peak area of the total impurity ([1]; solution pH 7.4, 37° C., 8 h): 0.65%
- Percentage (%) relative to the peak area of the compound at the original point ([1]; solution pH 7.4, 37° C., 8 h): 101.4%
- Percentage (%) of the peak area of the total impurity ([1]; solution pH 7.4, 37° C., 12 h): 0.67%
- Percentage (%) relative to the peak area of the compound at the original point ([1]; solution pH 7.4, 37° C., 12 h): 100.9%
- Percentage (%) of the peak area of the total impurity ([1]; solution pH 7.4, 37° C., 14 h): 0.71%
- Percentage (%) relative to the peak area of the compound at the original point ([1]; solution pH 7.4, 37° C., 14 h): 101.3%
- Percentage (%) of the peak area of the total impurity ([1]; solution pH 7.4, 37° C., 24 h): 0.74%
- Percentage (%) relative to the peak area of the compound at the original point ([1]; solution pH 7.4, 37° C., 24 h): 101.1%
- chemical stability (conclusion in words) ([1]; storage in solutions of various pH at 37° C. for 24 h): good chemical stability
- IC50 (ERK2 kinase; class symbols, read-out: ERK2 IC50): ≤ 10 nM
- IC50 (ERK2 kinase; read-out: IC50 against ERK2 kinase): 3.3 nM
